Data from article PMC11963559, “Identification of novel thiazole derivatives as flaviviral protease inhibitors effective against Dengue (DENV2) and Japanese encephalitis viruses” (Antimicrobial Agents and Chemotherapy, 2025).

Columns and labels:
JEV = experiment: Time course of JEV genomic RNA accumulation in BHK-21 cells (qRT-PCR); format: cell-based; conditions: JEV MOI 0.1, BHK-21, 10 µM; for effect on viral genomic RNA abundance at early time points: 1 and 9 hpi; for effect on viral genomic RNA abundance at later time point: 18 hpi
Source text: This is because the initial translation of the viral RNA genome leads to the production of a viral polyprotein, which upon processing by the NS2B–NS3 protease, leads to the generation of viral RdRp (NS5) and other NS proteins necessary for RNA synthesis ([15]). Thus, inhibition of the NS2B–NS3 protease by the two potential compounds should affect viral genomic RNA accumulation within infected cells only at later time points post-infection ([46]). To validate this hypothesis, we assessed the effect of the compounds upon dynamic accumulation of viral RNA at different times of post-infection. Cells were infected with the virus in the absence or presence of 3aq or 3au (10 µM) and harvested at different time points post-infection, and viral genomic RNA copies were estimated using qRT-PCR. […] As expected, the abundance of viral genomic RNA remained low at the early time points of infection (1 and 9 hpi) and subsequently peaked at 18 hpi (Fig. 9B). […] This is an indirect effect of NS2B–NS3 protease inhibition, which in turn blocks polyprotein processing and assembly of the viral RNA synthesis machinery.
Fig 9 Detailed molecular mechanism of the inhibitory action of the compounds. (A and B) BHK-21 cells were infected with JEV virus (MOI = 0.1) for 1, 9, and 18 h with or without 10 µM of compounds. Total RNA extracted at indicated times was evaluated by qRT-PCR. The data are expressed as fold changes of the viral RNA levels normalized to GAPDH control relative to the corresponding DMSO treated samples at each time point. (B) Same experiment as in (A) but expressed as relative to the initial inoculation amount (at 1 hpi). BHK-21 cells were infected with JEV (MOI: 0.1) and treated with 3au (C) and 3aq (D) pre + during + post (−3), during + post (0), and post (3, 6, 9) infection. Viral RNA load were assessed at 24 hpi using qRT-PCR. The data are expressed as fold changes of the viral RNA levels normalized to GAPDH control relative to the corresponding DMSO-treated sample. Each experiment is performed in biological triplicate and repeated thrice. Statistical significance was analyzed by two-tailed equal variance Student’s t-test: *P < 0.05, **P < 0.01, ***P < 0.001, and ****P < 0.0001.
To quantify the viral RNA copy number, quantitative RT-PCR (qRT-PCR) was performed in duplicate using iTaq Universal SYBR Green Supermix (Bio-Rad). The cDNAs used for qPCR analysis were prepared using Power SYBR Green PCR Master Mix (Bio-Rad, #172–5125) in a QuantStudio5 Applied Biosystems real-time PCR system. […] Delta Ct for both control and compound-treated samples was determined and subsequently analyzed by determining the delta Ct to determine the mRNA expression of target genes in control vs treated samples.

DENV2 NS2B–NS3 protease = molecular target: T1, DENV2 NS2B–NS3 protease (Dengue virus type 2, UniProt P14340); experiment: In vitro DENV2 NS2B/NS3pro inhibition assay using a FRET substrate; format: biochemical; conditions: IC50 (µM), DENV protease inhibitory activity, 5 µM substrate, 10 nM NS2b-NS3pro, compounds at 1, 10 and 100 µM, 1 h at RT; compounds 3ao–3av
T1 construct: Activity of recombinant dengue 2 virus NS3 protease in the presence of a truncated NS2B co-factor; The N-terminal domain of NS3 contains a highly conserved protease-active core; made in house; host or cells: Escherichia coli BL21(DE3)
Method: To assess the anti-DENV NS2B–NS3 activity of the compounds, we expressed the DENV2 NS2B–NS3 protease in BL21DE3 cells and subsequently purified it using Ni-NTA affinity chromatography, as outlined in Materials and Methods ([39], [40]). The protease activity assay was performed using different concentrations (1, 2.5, 5, 10, 25, 50, 75, and 100 µM) of a fluorogenic substrate (Abs-Nle-Lys-Arg-Arg-Ser-3-(NO2)Tyr) at various time points (5, 15, 30, 45, and 60 min), as described previously ([39], [41]). […] Therefore, all subsequent assays were conducted with a 1 h incubation time.
The selected compounds were analyzed using in vitro protease assays performed in black 96-well plates. […] All assays were performed in triplicate. The release of free AMC was measured using a Varioskan LUX multimode microplate reader (Thermo Fisher Scientific) at excitation and emission wavelengths of 380 and 460 nm, respectively. Control fluorescence values obtained in the absence of inhibitors were considered 100%, and those obtained in the presence of inhibitors were calculated as the percentage of inhibition of the control using Microsoft Excel and plotted using Origin Pro 2023b. The background AMC in the absence of protease was subtracted before data analysis. Further, protease assay was done using different concentration of the compounds (1, 10, and 100 µM) to evaluate the IC50 for the in vitro assay. IC50 curves were fitted and determined by fitting the nonlinear equation in Origin2023b software. A similar approach was used to analyze the enzymatic kinetics of protease inhibition. The reaction progress was monitored by the release of free aminomethylcoumarin (AMC), as previously described. The substrate was incubated with or without the inhibitor in the aforementioned reaction buffer in the presence of varying concentrations of the substrate. The reactions were initiated by the addition of the NS2B–NS3 protease. Protease activity was monitored for 1 h based on the initial rate of increase in fluorescence intensity at 460 nm, with an excitation wavelength of 380 nm. The results were analyzed using Origin Pro 2023b and the Michaelis–Menten equation to obtain the apparent Michaelis–Menten constants and maximal velocities. All assays were performed in triplicate. For each tested compound, two different concentrations of the inhibitor (0, 10, and 25 µM) were used at various concentrations (0–250 μM) of the substrate. The mechanism of inhibition was determined by observing the deviations in the apparent Km and Vmax values.

T1 sequence (P14340 1476-1653): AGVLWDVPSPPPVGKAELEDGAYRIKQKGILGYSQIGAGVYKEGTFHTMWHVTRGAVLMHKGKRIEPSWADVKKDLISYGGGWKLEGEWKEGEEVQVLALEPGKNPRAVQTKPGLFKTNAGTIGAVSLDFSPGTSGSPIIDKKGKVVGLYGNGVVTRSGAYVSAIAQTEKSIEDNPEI
T1 sequence (P14340 1398-1437): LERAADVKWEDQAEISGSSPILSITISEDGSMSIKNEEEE

Structure (SMILES)	effect on viral genomic RNA abundance at early time points (JEV)	effect on viral genomic RNA abundance at later time point (JEV)	IC50 (DENV2 NS2B–NS3 protease) [µM]
COc1ccc(-c2csc(N/N=C(\C)c3cc(O)cc(O)c3)n2)cc1 [3au]	no effect	drastic effect	20.8
COc1ccc(-c2csc(N/N=C(\C)c3ccc(O)cc3)n2)cc1 [3aq]	no effect	drastic effect	15.1
